The text below walks through data of US9771334B2, “Triketone compound and preparation method and use thereof” (SHANDONG CYNDA CHEMICAL CO., LTD., priority 2013, dated 2017).

Assay in all cases: Herbicidal activity, pot culture method (primary and secondary screening test)
Common to all, as to type: in vivo
Holding throughout (conditions): primary screening, pot culture, 150 g/ha, sprayed at 3-leaf stage, result 15 days later

For assay [1], the system named is digitaria sanguinalis. Put shortly: (§1)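 Percent growth inhibition of weeds sprayed at the 3-leaf stage, 150 g/ha in the primary screen and a lower dose in the secondary screen, scored 15 days after treatment under greenhouse conditions.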
The test system of assay [2] is setaria viridis. In a few lines: as §1
The test system of assay [3] is abutilon theophrasti. In a few lines: as §1
For assay [4], the system named is amaranthus retroflexus. Put shortly: as §1
In assay [5] the test system is eclipta prostrata. In a few lines: as §1
In assay [6] the test system is echinochloa crusgalli. Put shortly: as §1

Consider `Cn1c(=O)n(-c2ccc(Cl)cc2Cl)c(=O)c2cc(C(=O)C3=C(O)CCCC3=O)ccc21` [Compound 62], for which the “herbicidal activity inhibition ratio (%), Digitaria sanguinalis” value in assay [1] stood at 65%. Besides, in assay [2], the “herbicidal activity inhibition ratio (%), Setaria viridis” value came out at 93%. Further, the “herbicidal activity inhibition ratio (%), Abutilon theophrasti” value in assay [3] came to 100%. Besides, the “herbicidal activity inhibition ratio (%), Amaranthus retroflexus” value in assay [4] came out at 88%. The “herbicidal activity inhibition ratio (%), Eclipta prostrata” value in assay [5] turned out to be 20%. The “herbicidal activity inhibition ratio (%), Echinochloa crusgalli” value in assay [6] was determined as 83%.

As to `Cn1c(=O)n(-c2ccc(Cl)cc2Cl)c(=O)c2cc(C(=O)C3=C(O)CC(C)(C)CC3=O)ccc21` [Compound 63], the “herbicidal activity inhibition ratio (%), Digitaria sanguinalis” value in assay [1] is given as 20%. In assay [2], the “herbicidal activity inhibition ratio (%), Setaria viridis” value came out at 30%. Also, the “herbicidal activity inhibition ratio (%), Abutilon theophrasti” value in assay [3] turned out to be 100%. The “herbicidal activity inhibition ratio (%), Amaranthus retroflexus” value in assay [4] is on record as 30%. For the same compound, in assay [5], the “herbicidal activity inhibition ratio (%), Eclipta prostrata” value is listed as 50%. Besides, in assay [6], the “herbicidal activity inhibition ratio (%), Echinochloa crusgalli” value stood at 25%.

`CC1CC(=O)C(C(=O)c2ccc3c(c2)c(=O)n(-c2ccc(Cl)cc2Cl)c(=O)n3C)=C(O)C1` (stereo not drawn) [Compound 64]: in assay [1], the “herbicidal activity inhibition ratio (%), Digitaria sanguinalis” value turned out to be 60%. Besides, in assay [2], the “herbicidal activity inhibition ratio (%), Setaria viridis” value turned out to be 93%. Also, the “herbicidal activity inhibition ratio (%), Abutilon theophrasti” value in assay [3] worked out at 95%. Moreover, the “herbicidal activity inhibition ratio (%), Amaranthus retroflexus” value in assay [4] was found to be 80%. For the same compound, the “herbicidal activity inhibition ratio (%), Eclipta prostrata” value in assay [5] is reported as 0%. In addition, the “herbicidal activity inhibition ratio (%), Echinochloa crusgalli” value in assay [6] came to 90%.

As to `Cc1cc(C)c(-n2c(=O)c3cc(C(=O)C4=C(O)CCCC4=O)ccc3n(C)c2=O)c(C)c1` [Compound 67], the “herbicidal activity inhibition ratio (%), Digitaria sanguinalis” value in assay [1] amounted to 80%. The “herbicidal activity inhibition ratio (%), Setaria viridis” value in assay [2] stood at 80%. Besides, the “herbicidal activity inhibition ratio (%), Abutilon theophrasti” value in assay [3] was determined as 95%. Moreover, in assay [4], the “herbicidal activity inhibition ratio (%), Amaranthus retroflexus” value is 80%. For the same compound, in assay [5], the “herbicidal activity inhibition ratio (%), Eclipta prostrata” value turned out to be 0%. Also, in assay [6], the “herbicidal activity inhibition ratio (%), Echinochloa crusgalli” value turned out to be 83%.

Regarding `Cc1ccccc1-n1c(=O)[nH]c2ccc(C(=O)C3=C(O)CCCC3=O)cc2c1=O` [Compound 68], the “herbicidal activity inhibition ratio (%), Digitaria sanguinalis” value in assay [1] turned out to be 0%. For the same compound, in assay [2], the “herbicidal activity inhibition ratio (%), Setaria viridis” value was 10%. Besides, the “herbicidal activity inhibition ratio (%), Abutilon theophrasti” value in assay [3] is listed as 15%. Further, the “herbicidal activity inhibition ratio (%), Amaranthus retroflexus” value in assay [4] came out at 0%. In assay [5], the “herbicidal activity inhibition ratio (%), Eclipta prostrata” value was 0%. The “herbicidal activity inhibition ratio (%), Echinochloa crusgalli” value in assay [6] is recorded as 0%.

Consider `CCn1c(=O)n(-c2ccccc2C)c(=O)c2cc(C(=O)C3=C(O)CC(C)(C)CC3=O)ccc21` [Compound 69], for which, in assay [1], the “herbicidal activity inhibition ratio (%), Digitaria sanguinalis” value worked out at 30%. Further, the “herbicidal activity inhibition ratio (%), Setaria viridis” value in assay [2] is 85%. Further, in assay [3], the “herbicidal activity inhibition ratio (%), Abutilon theophrasti” value was 100%. The “herbicidal activity inhibition ratio (%), Amaranthus retroflexus” value in assay [4] came to 95%. In addition, in assay [5], the “herbicidal activity inhibition ratio (%), Eclipta prostrata” value is on record as 88%. Besides, the “herbicidal activity inhibition ratio (%), Echinochloa crusgalli” value in assay [6] is 90%.

On to `CCCn1c(=O)n(-c2ccccc2C)c(=O)c2cc(C(=O)C3=C(O)CCCC3=O)ccc21` [Compound 71], for which, in assay [1], the “herbicidal activity inhibition ratio (%), Digitaria sanguinalis” value is 25%. Further, the “herbicidal activity inhibition ratio (%), Setaria viridis” value in assay [2] came to 98%. The “herbicidal activity inhibition ratio (%), Abutilon theophrasti” value in assay [3] was found to be 95%. Moreover, the “herbicidal activity inhibition ratio (%), Amaranthus retroflexus” value in assay [4] worked out at 85%. Moreover, the “herbicidal activity inhibition ratio (%), Eclipta prostrata” value in assay [5] was 98%. Moreover, the “herbicidal activity inhibition ratio (%), Echinochloa crusgalli” value in assay [6] was determined as 80%.

As to `CCCn1c(=O)n(-c2ccccc2C)c(=O)c2cc(C(=O)C3=C(O)CC(C)(C)CC3=O)ccc21` [Compound 72], the “herbicidal activity inhibition ratio (%), Digitaria sanguinalis” value in assay [1] amounted to 20%. Also, in assay [2], the “herbicidal activity inhibition ratio (%), Setaria viridis” value is reported as 30%. Moreover, in assay [3], the “herbicidal activity inhibition ratio (%), Abutilon theophrasti” value was 100%. In assay [4], the “herbicidal activity inhibition ratio (%), Amaranthus retroflexus” value was 20%. In assay [5], the “herbicidal activity inhibition ratio (%), Eclipta prostrata” value was 60%. The “herbicidal activity inhibition ratio (%), Echinochloa crusgalli” value in assay [6] was found to be 30%.

For the compound `CCCCn1c(=O)n(-c2ccccc2C)c(=O)c2cc(C(=O)C3=C(O)CCCC3=O)ccc21` [Compound 73], the “herbicidal activity inhibition ratio (%), Digitaria sanguinalis” value in assay [1] was 0%. Further, the “herbicidal activity inhibition ratio (%), Setaria viridis” value in assay [2] came to 10%. For the same compound, the “herbicidal activity inhibition ratio (%), Abutilon theophrasti” value in assay [3] was 50%. Also, the “herbicidal activity inhibition ratio (%), Amaranthus retroflexus” value in assay [4] is 30%. Besides, the “herbicidal activity inhibition ratio (%), Eclipta prostrata” value in assay [5] was 0%. For the same compound, in assay [6], the “herbicidal activity inhibition ratio (%), Echinochloa crusgalli” value was determined as 0%.

On to `CCCCn1c(=O)n(-c2ccccc2C)c(=O)c2cc(C(=O)C3=C(O)CC(C)(C)CC3=O)ccc21` [Compound 74], for which the “herbicidal activity inhibition ratio (%), Digitaria sanguinalis” value in assay [1] was determined as 0%. Also, the “herbicidal activity inhibition ratio (%), Setaria viridis” value in assay [2] amounted to 10%. In addition, the “herbicidal activity inhibition ratio (%), Abutilon theophrasti” value in assay [3] turned out to be 50%. The “herbicidal activity inhibition ratio (%), Amaranthus retroflexus” value in assay [4] was found to be 0%. Also, the “herbicidal activity inhibition ratio (%), Eclipta prostrata” value in assay [5] turned out to be 0%. Moreover, the “herbicidal activity inhibition ratio (%), Echinochloa crusgalli” value in assay [6] worked out at 0%.

`Cc1ccccc1-n1c(=O)c2cc(C(=O)C3=C(O)CCCC3=O)ccc2n(CC(C)C)c1=O` [Compound 75]: the “herbicidal activity inhibition ratio (%), Digitaria sanguinalis” value in assay [1] is on record as 0%. In addition, the “herbicidal activity inhibition ratio (%), Setaria viridis” value in assay [2] worked out at 10%. In assay [3], the “herbicidal activity inhibition ratio (%), Abutilon theophrasti” value is given as 90%. Moreover, the “herbicidal activity inhibition ratio (%), Amaranthus retroflexus” value in assay [4] came to 20%. Besides, the “herbicidal activity inhibition ratio (%), Eclipta prostrata” value in assay [5] is reported as 20%. Moreover, in assay [6], the “herbicidal activity inhibition ratio (%), Echinochloa crusgalli” value is reported as 0%.

`Cc1ccccc1-n1c(=O)c2cc(C(=O)C3=C(O)CC(C)(C)CC3=O)ccc2n(CC(C)C)c1=O` [Compound 76]: the “herbicidal activity inhibition ratio (%), Digitaria sanguinalis” value in assay [1] is given as 0%. In addition, the “herbicidal activity inhibition ratio (%), Setaria viridis” value in assay [2] was determined as 10%. The “herbicidal activity inhibition ratio (%), Abutilon theophrasti” value in assay [3] came to 20%. In assay [4], the “herbicidal activity inhibition ratio (%), Amaranthus retroflexus” value was 0%. Besides, the “herbicidal activity inhibition ratio (%), Eclipta prostrata” value in assay [5] turned out to be 0%. Besides, in assay [6], the “herbicidal activity inhibition ratio (%), Echinochloa crusgalli” value was 0%.

As for `C#CCn1c(=O)n(-c2ccccc2C)c(=O)c2cc(C(=O)C3=C(O)CCCC3=O)ccc21` [Compound 77], in assay [1], the “herbicidal activity inhibition ratio (%), Digitaria sanguinalis” value was determined as 0%. In addition, the “herbicidal activity inhibition ratio (%), Setaria viridis” value in assay [2] came out at 20%. In assay [3], the “herbicidal activity inhibition ratio (%), Abutilon theophrasti” value was determined as 90%. Besides, the “herbicidal activity inhibition ratio (%), Amaranthus retroflexus” value in assay [4] amounted to 90%. For the same compound, the “herbicidal activity inhibition ratio (%), Eclipta prostrata” value in assay [5] was found to be 35%. Besides, the “herbicidal activity inhibition ratio (%), Echinochloa crusgalli” value in assay [6] was 50%.

For the compound `C#CCn1c(=O)n(-c2ccccc2C)c(=O)c2cc(C(=O)C3=C(O)CC(C)(C)CC3=O)ccc21` [Compound 78], the “herbicidal activity inhibition ratio (%), Digitaria sanguinalis” value in assay [1] was 0%. Further, the “herbicidal activity inhibition ratio (%), Setaria viridis” value in assay [2] amounted to 10%. Also, in assay [3], the “herbicidal activity inhibition ratio (%), Abutilon theophrasti” value turned out to be 0%. Moreover, the “herbicidal activity inhibition ratio (%), Amaranthus retroflexus” value in assay [4] stood at 0%. The “herbicidal activity inhibition ratio (%), Eclipta prostrata” value in assay [5] worked out at 0%. Moreover, the “herbicidal activity inhibition ratio (%), Echinochloa crusgalli” value in assay [6] is recorded as 0%.

As to `Cc1ccccc1-n1c(=O)c2cc(C(=O)C3=C(O)CCCC3=O)ccc2n(Cc2ccccc2)c1=O` [Compound 79], the “herbicidal activity inhibition ratio (%), Digitaria sanguinalis” value in assay [1] was found to be 0%. Moreover, the “herbicidal activity inhibition ratio (%), Setaria viridis” value in assay [2] turned out to be 10%. Further, the “herbicidal activity inhibition ratio (%), Abutilon theophrasti” value in assay [3] worked out at 0%. In addition, the “herbicidal activity inhibition ratio (%), Amaranthus retroflexus” value in assay [4] is 0%. Further, in assay [5], the “herbicidal activity inhibition ratio (%), Eclipta prostrata” value turned out to be 0%. Also, the “herbicidal activity inhibition ratio (%), Echinochloa crusgalli” value in assay [6] was determined as 0%.

With `Cc1ccccc1-n1c(=O)c2cc(C(=O)C3=C(O)CC(C)(C)CC3=O)ccc2n(Cc2ccccc2)c1=O` [Compound 80], the “herbicidal activity inhibition ratio (%), Digitaria sanguinalis” value in assay [1] is 0%. In assay [2], the “herbicidal activity inhibition ratio (%), Setaria viridis” value is on record as 10%. In assay [3], the “herbicidal activity inhibition ratio (%), Abutilon theophrasti” value came out at 0%. Further, the “herbicidal activity inhibition ratio (%), Amaranthus retroflexus” value in assay [4] is 0%. Besides, the “herbicidal activity inhibition ratio (%), Eclipta prostrata” value in assay [5] is listed as 0%. For the same compound, the “herbicidal activity inhibition ratio (%), Echinochloa crusgalli” value in assay [6] was determined as 0%.

For `COc1cccc(Cn2c(=O)n(-c3ccccc3C)c(=O)c3cc(C(=O)C4=C(O)CC(C)(C)CC4=O)ccc32)c1` [Compound 81], the “herbicidal activity inhibition ratio (%), Digitaria sanguinalis” value in assay [1] came to 0%. In addition, the “herbicidal activity inhibition ratio (%), Setaria viridis” value in assay [2] was 10%. Besides, the “herbicidal activity inhibition ratio (%), Abutilon theophrasti” value in assay [3] stood at 0%. The “herbicidal activity inhibition ratio (%), Amaranthus retroflexus” value in assay [4] is on record as 0%. The “herbicidal activity inhibition ratio (%), Eclipta prostrata” value in assay [5] amounted to 0%. In assay [6], the “herbicidal activity inhibition ratio (%), Echinochloa crusgalli” value came out at 0%.

For `Cc1ccccc1-n1c(=O)c2c(C)c(C(=O)C3=C(O)CCCC3=O)ccc2n(C)c1=O` [Compound 82], the “herbicidal activity inhibition ratio (%), Digitaria sanguinalis” value in assay [1] was 100%. For the same compound, the “herbicidal activity inhibition ratio (%), Setaria viridis” value in assay [2] is on record as 100%. For the same compound, the “herbicidal activity inhibition ratio (%), Abutilon theophrasti” value in assay [3] is 100%. In addition, the “herbicidal activity inhibition ratio (%), Amaranthus retroflexus” value in assay [4] is 100%. Besides, the “herbicidal activity inhibition ratio (%), Eclipta prostrata” value in assay [5] is 100%. The “herbicidal activity inhibition ratio (%), Echinochloa crusgalli” value in assay [6] was determined as 100%.

Take `Cc1ccccc1-n1c(=O)c2cc(C(=O)C3=C(O)CCCC3=O)ccc2n(Cc2ccccc2F)c1=O` [Compound 83]: the “herbicidal activity inhibition ratio (%), Digitaria sanguinalis” value in assay [1] came to 30%. The “herbicidal activity inhibition ratio (%), Setaria viridis” value in assay [2] is 50%. The “herbicidal activity inhibition ratio (%), Abutilon theophrasti” value in assay [3] is reported as 0%. Moreover, in assay [4], the “herbicidal activity inhibition ratio (%), Amaranthus retroflexus” value was 0%. Moreover, the “herbicidal activity inhibition ratio (%), Eclipta prostrata” value in assay [5] is reported as 90%. Also, the “herbicidal activity inhibition ratio (%), Echinochloa crusgalli” value in assay [6] came out at 50%.
